The record followed here is US20230312550A1, “N-(2-(4-CYANOTHIAZOLIDIN-3-YL)-2-OXOETHYL)-QUINOLINE-4-CARBOXAMIDES” (AstraZeneca AB, priority 2020, published 2023).

Data set [1] deals with human Fibroblast activation protein alpha (hFAP) (Homo sapiens (Human), UniProt Q12884). The experiment in a line: hFAP inhibition assay (tight binders). Note: hFAP 2.4 pM. It is filed as biochemical. The following applies: Ala-Pro-AMC 20 μM, n = 1 or geometric mean n = 2-6. Here is the method: The plates were read on a PHERAstar® reader with excitation 340 nm and emission 460 nm. Data were analyzed in Genedata Screener®. IC50 values were determined by plotting % inhibition versus log compound concentration and using a one site dose response model.
Sequence of human Fibroblast activation protein alpha (hFAP) (Q12884 38-760): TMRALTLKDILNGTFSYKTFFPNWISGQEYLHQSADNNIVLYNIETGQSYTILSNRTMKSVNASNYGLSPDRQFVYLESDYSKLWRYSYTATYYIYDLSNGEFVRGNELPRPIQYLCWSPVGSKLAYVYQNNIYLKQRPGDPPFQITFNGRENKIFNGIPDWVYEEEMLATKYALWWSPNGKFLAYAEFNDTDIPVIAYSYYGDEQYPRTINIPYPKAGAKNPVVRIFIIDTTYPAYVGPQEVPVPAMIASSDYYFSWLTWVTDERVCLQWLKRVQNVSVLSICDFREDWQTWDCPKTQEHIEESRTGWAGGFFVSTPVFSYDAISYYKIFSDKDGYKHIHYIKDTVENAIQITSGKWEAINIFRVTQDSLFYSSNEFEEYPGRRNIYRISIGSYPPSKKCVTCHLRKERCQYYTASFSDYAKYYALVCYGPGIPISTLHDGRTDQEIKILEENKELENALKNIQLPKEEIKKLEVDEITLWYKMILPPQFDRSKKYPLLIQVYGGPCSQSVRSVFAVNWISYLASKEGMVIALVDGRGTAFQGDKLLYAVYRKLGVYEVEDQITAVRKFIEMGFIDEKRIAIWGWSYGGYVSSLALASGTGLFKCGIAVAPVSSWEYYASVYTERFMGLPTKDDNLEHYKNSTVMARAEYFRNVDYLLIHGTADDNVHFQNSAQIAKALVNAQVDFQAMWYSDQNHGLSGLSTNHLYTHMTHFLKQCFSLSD

A further data set has as its target hFAP (M39-A757) (Homo sapiens (Human), UniProt Q12884). The experiment in a line: hFAP binding assay (surface plasmon resonance). The following applies: SPR, 20° C.; for hFAP Binding assay k(off) / hFAP Binding assay k(on): single cycle kinetics; for Kd: n = 1 or geometric mean n = 2-4.
The target in data set [2] is Prolyl endopeptidase, Prolyl Oligopeptidase (hPREP) (Homo sapiens (Human), UniProt P48147). The experiment in a line: hPrep inhibition assay. It is filed as biochemical. Conditions: hPREP 0.6 nM, Z-Gly-Pro-amino-methylcoumarin 50 μM; read-out: PREP IC50. The gist of the method:
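Recombinant human PREP at 0.6 nM final with Z-Gly-Pro-AMC substrate at 50 μM final in Tris-HCl pH 7.5, NaCl, Triton X-100, glutathione; 15 min rt preincubation then 20 min rt reaction in dark. AMC fluorescence (ex 340/em 460 nm); IC50 from one-site dose-response fit of % inhibition.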

For data set [3] the following is noted: rat, hepatocytes.
Data set [4] is described as follows: in vitro. Conditions: human, microsomes, HLM CLint.
Protocol: (§1) Metabolic stability in HLM was measured as described in J Comput Aided Mol Des 2015, 29, 795.
The nature of the next data set: physchem. Conditions: kinetic from dmso stock.
In data set [5] the target is human dipeptidylpeptidase 7 (hDPP7) (Homo sapiens (Human), UniProt Q9UHL4). Put plainly: hDPP7 inhibition assay. It is filed as biochemical. Conditions: hDPP7 15 nM, Ala-Pro-amino-methylcoumarin 5 μM, n = 1. Here is the method: Compounds were tested in a biochemical inhibition assay using human dipeptidylpeptidase 7 (hDPP7) enzyme at 15 nM FAC (BPS Bioscience, #80070) and the substrate Ala-Pro-amino-methylcoumarin (BPS Bioscience, #80305) at 5 μM FAC. The enzymatic reactions were conducted in duplicate at rt for 30 min in 50 μL DPP assay buffer (BPS Bioscience, #80300). Compound solutions (in DMSO) at 10 CR, 3 fold dilution series were prepared in assay buffer ten-fold higher than the final concentration, and 5 μL of the dilution was added to a 50 μL reaction so that the highest compound concentration was 100 μM FAC and the concentration of DMSO was 1% in all wells. The plates were read on a Tecan Infinite M1000 microplate reader with excitation 340 nm and emission 460 nm. Data were analyzed in Graph Pad Prism. IC50 values were determined by plotting % inhibition versus log compound concentration and using a one site dose response model. Raw data signals were normalized using 1% DMSO as 0% control and no enzyme as 100% inhibitor control.

Data set [6] deals with human dipeptidylpeptidase 9 (hDPP9) (Homo sapiens (Human), UniProt Q86TI2). The experiment in a line: hDPP9 inhibition assay. It is filed as biochemical. The following applies: hDPP9 0.4 nM, Ala-Pro-amino-methylcoumarin 5 μM, n = 1. Here is the method: Compounds were tested in a biochemical inhibition assay using human dipeptidylpeptidase 9 (hDPP9) enzyme at 0.4 nM FAC (BPS Bioscience, #80090) and the substrate Ala-Pro-amino-methylcoumarin (BPS Bioscience #80305) at 5 μM FAC. The enzymatic reactions were conducted in duplicate at rt for 30 min in 50 μL DPP assay buffer (BPS Bioscience, #80300). […] The plates were read on a Tecan Infinite M1000 microplate reader with excitation 340 nm and emission 460 nm. Data were analyzed in Graph Pad Prism. IC50 values were determined by plotting % inhibition versus log compound concentration and using a one site dose response model. Raw data signals were normalized using 1% DMSO as 0% control and no enzyme as 100% inhibitor control.
Sequence of human dipeptidylpeptidase 9 (hDPP9) (Q86TI2 whole entry): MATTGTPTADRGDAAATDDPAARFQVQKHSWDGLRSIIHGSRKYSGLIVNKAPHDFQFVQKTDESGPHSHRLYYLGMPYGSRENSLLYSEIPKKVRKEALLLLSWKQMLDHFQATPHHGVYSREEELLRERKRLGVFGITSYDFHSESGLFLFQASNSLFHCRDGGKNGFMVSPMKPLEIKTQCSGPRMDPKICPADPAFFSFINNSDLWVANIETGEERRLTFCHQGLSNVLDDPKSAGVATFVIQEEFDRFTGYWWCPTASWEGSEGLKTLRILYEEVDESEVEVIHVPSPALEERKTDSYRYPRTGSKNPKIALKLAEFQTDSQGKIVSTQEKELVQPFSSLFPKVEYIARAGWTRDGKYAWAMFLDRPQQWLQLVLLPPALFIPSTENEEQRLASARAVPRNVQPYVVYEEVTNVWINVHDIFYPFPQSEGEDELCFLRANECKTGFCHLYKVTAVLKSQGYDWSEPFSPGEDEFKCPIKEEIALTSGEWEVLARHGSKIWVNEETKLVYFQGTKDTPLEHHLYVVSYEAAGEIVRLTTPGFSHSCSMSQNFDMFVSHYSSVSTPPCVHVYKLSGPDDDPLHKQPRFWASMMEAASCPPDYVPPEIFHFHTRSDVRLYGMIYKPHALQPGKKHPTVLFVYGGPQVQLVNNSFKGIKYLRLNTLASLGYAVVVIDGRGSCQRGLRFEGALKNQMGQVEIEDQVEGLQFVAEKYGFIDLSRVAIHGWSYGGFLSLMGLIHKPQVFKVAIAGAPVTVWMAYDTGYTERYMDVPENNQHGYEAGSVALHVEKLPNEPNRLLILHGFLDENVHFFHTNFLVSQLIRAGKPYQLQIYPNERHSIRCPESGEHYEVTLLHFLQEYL

The target of data set [7] is Fibroblast Activation Protein alpha (FAP) (Mus musculus (Mouse), UniProt P97321). The experiment in a line: in vivo.
Sequence of Fibroblast Activation Protein alpha (FAP) (P97321 24-761): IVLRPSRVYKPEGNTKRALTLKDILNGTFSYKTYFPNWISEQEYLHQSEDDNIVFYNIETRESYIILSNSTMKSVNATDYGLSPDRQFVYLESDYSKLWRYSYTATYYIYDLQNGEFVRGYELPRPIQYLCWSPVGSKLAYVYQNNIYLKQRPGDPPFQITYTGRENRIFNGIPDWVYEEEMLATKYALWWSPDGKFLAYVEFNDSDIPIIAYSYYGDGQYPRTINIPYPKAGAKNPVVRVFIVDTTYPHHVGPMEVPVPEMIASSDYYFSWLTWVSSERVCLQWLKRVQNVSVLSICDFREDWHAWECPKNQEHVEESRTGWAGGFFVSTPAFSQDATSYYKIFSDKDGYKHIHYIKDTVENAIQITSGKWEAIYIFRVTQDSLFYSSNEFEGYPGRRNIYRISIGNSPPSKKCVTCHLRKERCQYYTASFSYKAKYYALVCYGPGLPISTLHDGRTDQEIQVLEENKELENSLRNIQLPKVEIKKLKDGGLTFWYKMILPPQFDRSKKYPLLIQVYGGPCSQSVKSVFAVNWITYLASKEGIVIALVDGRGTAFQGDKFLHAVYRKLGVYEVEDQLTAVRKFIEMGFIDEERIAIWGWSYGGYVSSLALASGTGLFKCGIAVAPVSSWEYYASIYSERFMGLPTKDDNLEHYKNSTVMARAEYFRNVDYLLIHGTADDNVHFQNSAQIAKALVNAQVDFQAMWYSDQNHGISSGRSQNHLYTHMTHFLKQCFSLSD
Protocol: The effect of test compound on FAP enzyme activity in mouse plasma was evaluated in an enzymatic assay using the Fibroblast Activation Protein alpha (FAP) specific fluorogenic substrate dipeptide-Coumarin, Ala-Pro-AMC, (ARI-3144).
Male C57Bl/6 mice (Charles River, Germany), 8 weeks of age, were single housed in a temperature-controlled room with a 12-hour light/dark cycle (06:00-18:00 light). The mice had ad libitum access to water and rodent chow diet (R70, Lactamin, Kimstad, Sweden), and were acclimated for 5 days upon arrival. After acclimation, all mice received a single oral dose of test compound (3 or 10 mg/kg). Blood samples for whole blood compound exposure measurements were taken at 0.25, 0.5, 1, 2, 4, 8 and 24 h post oral dosing. Samples were collected in EDTA capillary tubes (20 μL, K2E, REF 19.447) and were transferred to a 96-deep well plate (NUNC, Thermo Discher Scientific) and stored at −20° C. until further analyses were performed. Blood samples for plasma FAP enzyme activity measurements were taken at 0, 0.25, 0.5, 1, 2, 8 and 24 h post dosing. 25 μL of whole blood was collected in EDTA Microvette® CB 300 (K2E, REF 16.444.100) tubes, and were centrifuged at 4,000×g for 5 min. 10 μL of plasma was then transferred to PCR tubes and stored at −20° C. until further analysis was performed. All blood samples were taken by vena saphena puncture.
Recombinant human FAP (PB-17-1837, construct PL-17-0278, cd33-FAP (27-757)-6His, Mw85926 Da) was used as a standard for this assay. […] The plates were read on a Beckman Paradigm reader with excitation 360 nm and emission 465 nm. Fluorescence measurements were performed with kinetic read every 5 minutes for 60 min at room temperature. Data were analyzed in Excel (IDBS XLfit Add-In) using a Linear Regression (y=k*x+m) model to prepare a human recombinant FAP standard curve.
On the day of the assay, plasma was diluted (1:2) to 20 μL volume in buffer (PBS, 0.1% BSA) and 7.5 μL was transferred to the assay plate (384-well black, fluotrack PS, Greiner 781076). Ala-Pro-AMC (stock solution in 10 mM DMSO) was diluted in buffer (PBS, 0.1% BSA) to 150 μM concentration (180 μL stock solution to 12 mL buffer) and 7.5 μL added to the assay plate followed by a pipetting mix. The plates were read on a Beckman Paradigm reader with excitation 360 nm and emission 465 nm. Fluorescence measurements were performed with kinetic read every 5 minutes for 60 minutes at room temperature. As noted above, FAP cleaves Ala-Pro-AMC to release free AMC which is measured as a fluorescent signal.
The in vivo potency IC50 of each test compound was then estimated by relating the plasma exposure C of the compound to target engagement E in plasma using the following equation:
where E0 is the FAP baseline in plasma prior to dosing and Imax is the maximum effect of the compound. Data from each target engagement experiment were considered separately and therefore slightly different estimates of FAP baseline for each compound were obtained. […] The parameter estimation was done in Phoenix WinNonlin Certara build 8.1.0.3530 with the algorithm ‘Naïve pooled’ as parameter estimation method.
Data set [8] can be described thus: in vitro. The following applies: human, Caco-2.
Protocol: (§2) Caco-2 cell permeability was measured as described in Mol Pharm 2017, 14, 1601.
Data set [9] addresses FAP (Mus musculus (Mouse), UniProt P97321). Put plainly: FAP plasma inhibition assay, mouse plasma. It is filed as biochemical. The following applies: mouse plasma diluted 1:67, Ala-Pro-AMC 75 μM. The gist of the method: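 K2EDTA plasma served as enzyme source, human diluted 1:40 and mouse 1:67, in PBS with 0.1% BSA. Compounds ran as a 10-point 3-fold series from 500 nM final, in duplicate, 40 min at rt in the dark, with fluorescence read against a pre-substrate blank. IC50 came from % inhibition versus log concentration.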

Data set [10] is described as follows: Metabolic stability in human hepatocytes (hHep). Conditions: n = 1 or geometric mean of n = 2. It is filed as in vitro ADME.
The nature of a further data set: Kinetic solubility. The following applies: kinetic from dmso stock, Solubility, kinetic solubility; n = 1 or average of n = 2-3.
Another data set in a line: Caco-2 cell permeability. The following applies: human. (Passage across Caco-2 layers is used to estimate intestinal permeability.)
A short description of data set [11]: Metabolic stability in rat hepatocytes (rHep). Conditions: n = 1 or geometric mean of n = 2-3.
A short description of data set [12]: Metabolic stability in human liver microsomes (HLM). Conditions: human, HLM CLint, n = 1 or average of n = 2-3.
Protocol: as §1
Data set [13] concerns the target human dipeptidylpeptidase 8 (hDPP8) (Homo sapiens (Human), UniProt Q6V1X1). The experiment in a line: hDPP8 inhibition assay. It is filed as biochemical. Conditions: Ala-Pro-amino-methylcoumarin 5 μM, n = 1. Here is the method: The enzymatic reactions were conducted in duplicate at rt for 30 min in 50 μL DPP assay buffer (BPS Bioscience, #80300). […] The plates were read on a Tecan Infinite M1000 microplate reader with excitation 340 nm and emission 460 nm. Data were analyzed in Graph Pad Prism. IC50 values were determined by plotting % inhibition versus log compound concentration and using a one site dose response model. Raw data signals were normalized using 1% DMSO as 0% control and no enzyme as 100% inhibitor control.

For data set [14], the target named is FAP (Homo sapiens (Human), UniProt Q12884). The experiment in a line: hFAP inhibition assay. It is filed as biochemical. Conditions: hFAP […], Ala-Pro-AMC 20 μM; n = 1 or geometric mean n = 2-3. The method in brief: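 Human FAP (0.48 nM) in 100 mM Tris HCl, 100 mM NaCl, 0.05% Chaps, pH 7.4 was preincubated 15 min at rt in the dark with compounds (10-point, 3-fold series from 50 μM). Substrate was added from a 40 μM solution, then 30 min at rt. Fluorescence read at ex 340/em 460 nm; IC50 from one-site dose-response fit of % inhibition.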
Sequence of FAP (Homo sapiens (Human), UniProt Q12884) (Q12884 38-760): as the sequence (Q12884 38-760) above

The term IC50 denotes the concentration needed to halve the response being measured. Broadly, the Kd is the concentration at which binding is half-saturated. A higher Kd goes with a looser complex. As usually defined, the microsomal CLint is a measure of how fast metabolising enzymes remove a compound, apart from limits set by blood flow. As usually defined, the solubility is how much of the substance goes into solution per volume. Low readings indicate a poorly soluble substance, high ones a readily soluble substance. One may read the Papp A→B as how fast a substance crosses the layer from the apical side. Lower therefore signals slow passage. As usually defined, the Papp B→A is how fast a substance crosses the layer from the basolateral side. Usually efflux ratio stands for the permeability from basolateral to apical divided by that in the opposite direction, in the common usage.

Values after ≈ are worked out from the molar mass of the structure shown. Where two headings read alike, the source gives them in different places.

Sequence of hFAP (M39-A757) (Q12884 39-757): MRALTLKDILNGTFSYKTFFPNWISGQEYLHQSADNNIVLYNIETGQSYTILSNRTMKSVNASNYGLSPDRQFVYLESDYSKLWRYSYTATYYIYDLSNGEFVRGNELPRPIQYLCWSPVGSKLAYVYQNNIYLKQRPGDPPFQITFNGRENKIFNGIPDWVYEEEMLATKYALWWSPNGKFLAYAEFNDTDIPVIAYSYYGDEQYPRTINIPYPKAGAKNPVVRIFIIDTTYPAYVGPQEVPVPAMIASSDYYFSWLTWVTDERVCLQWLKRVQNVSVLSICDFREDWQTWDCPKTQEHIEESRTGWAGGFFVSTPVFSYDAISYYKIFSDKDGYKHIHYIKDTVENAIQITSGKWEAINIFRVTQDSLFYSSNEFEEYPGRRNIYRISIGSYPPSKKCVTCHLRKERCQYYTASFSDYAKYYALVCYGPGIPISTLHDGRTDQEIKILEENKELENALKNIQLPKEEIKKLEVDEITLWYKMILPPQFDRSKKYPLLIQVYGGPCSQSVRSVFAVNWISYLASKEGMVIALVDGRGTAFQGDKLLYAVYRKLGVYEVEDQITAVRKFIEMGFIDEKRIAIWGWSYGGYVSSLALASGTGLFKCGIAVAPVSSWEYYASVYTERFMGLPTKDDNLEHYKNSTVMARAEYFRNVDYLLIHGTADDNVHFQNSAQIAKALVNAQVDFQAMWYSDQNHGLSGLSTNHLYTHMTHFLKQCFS
Sequence of FAP (Mus musculus (Mouse), UniProt P97321) (P97321 24-761): as the sequence (P97321 24-761) above
Sequence of Prolyl endopeptidase, Prolyl Oligopeptidase (hPREP) (P48147 whole entry): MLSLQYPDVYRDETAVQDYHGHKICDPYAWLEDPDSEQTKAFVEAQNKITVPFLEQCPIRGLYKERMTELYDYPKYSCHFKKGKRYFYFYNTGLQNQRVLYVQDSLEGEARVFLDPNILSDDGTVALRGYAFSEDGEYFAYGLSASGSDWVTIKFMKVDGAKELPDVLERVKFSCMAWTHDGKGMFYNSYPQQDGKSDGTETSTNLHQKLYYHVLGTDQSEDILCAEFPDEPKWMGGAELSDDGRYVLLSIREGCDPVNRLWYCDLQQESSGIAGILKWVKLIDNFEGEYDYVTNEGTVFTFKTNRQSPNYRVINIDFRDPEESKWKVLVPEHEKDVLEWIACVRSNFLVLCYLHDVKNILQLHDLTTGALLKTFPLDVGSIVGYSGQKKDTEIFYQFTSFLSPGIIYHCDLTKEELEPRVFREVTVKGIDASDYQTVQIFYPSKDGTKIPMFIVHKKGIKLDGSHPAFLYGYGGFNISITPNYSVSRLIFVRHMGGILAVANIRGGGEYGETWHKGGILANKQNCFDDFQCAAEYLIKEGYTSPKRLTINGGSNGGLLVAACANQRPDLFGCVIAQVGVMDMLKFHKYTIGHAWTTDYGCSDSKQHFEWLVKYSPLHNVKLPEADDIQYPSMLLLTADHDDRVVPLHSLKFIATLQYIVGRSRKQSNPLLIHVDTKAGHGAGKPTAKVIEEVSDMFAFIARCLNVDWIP
Sequence of human dipeptidylpeptidase 8 (hDPP8) (Q6V1X1 whole entry): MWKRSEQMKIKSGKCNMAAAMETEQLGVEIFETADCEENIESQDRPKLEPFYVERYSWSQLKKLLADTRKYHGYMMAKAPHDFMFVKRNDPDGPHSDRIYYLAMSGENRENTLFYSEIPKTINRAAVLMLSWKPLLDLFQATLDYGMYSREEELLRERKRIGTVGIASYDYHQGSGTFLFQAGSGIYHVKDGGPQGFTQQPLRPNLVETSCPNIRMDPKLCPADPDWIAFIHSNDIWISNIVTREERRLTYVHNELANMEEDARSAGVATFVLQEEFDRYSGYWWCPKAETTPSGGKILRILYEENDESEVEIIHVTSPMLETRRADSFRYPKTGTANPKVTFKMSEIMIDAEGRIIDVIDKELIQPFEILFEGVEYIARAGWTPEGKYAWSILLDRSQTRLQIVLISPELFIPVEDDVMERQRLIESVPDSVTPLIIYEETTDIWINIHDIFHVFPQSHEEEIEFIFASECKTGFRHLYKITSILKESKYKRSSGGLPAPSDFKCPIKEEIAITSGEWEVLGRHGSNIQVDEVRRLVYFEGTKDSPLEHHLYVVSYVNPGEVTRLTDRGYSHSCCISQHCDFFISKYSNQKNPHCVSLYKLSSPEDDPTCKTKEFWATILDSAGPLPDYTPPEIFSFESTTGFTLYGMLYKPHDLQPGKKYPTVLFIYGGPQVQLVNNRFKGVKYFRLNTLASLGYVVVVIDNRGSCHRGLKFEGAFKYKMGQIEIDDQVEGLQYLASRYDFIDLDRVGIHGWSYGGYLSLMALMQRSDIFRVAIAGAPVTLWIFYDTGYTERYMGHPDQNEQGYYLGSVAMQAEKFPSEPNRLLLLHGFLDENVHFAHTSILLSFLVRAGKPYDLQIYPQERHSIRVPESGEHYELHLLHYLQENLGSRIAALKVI
Protocol for Caco-2 cell permeability: as §2
Protocol for Kinetic solubility: (§3) Kinetic solubility was measured as described in Comput Aided Mol Des 2015, 29, 795.
Protocol for hFAP (M39-A757): Compounds were tested in a direct binding assay using 8K surface plasmon resonance biosensor (GE Healthcare) at 20° C. Immobilization of hFAP (M39-A757) on a CMD200M sensor chip (Xantec) was performed using standard amine coupling procedure in immobilization buffer (10 mM HEPES, 150 mM NaCl, 0.05% Tween20, pH 7.4). The surface was washed with 10 mM NaOH, 1M NaCl before being activated with EDC/NHS (GE Healthcare), followed by immobilization of hFAP (in 10 mM Acetate pH 5.0). Finally, the surface was deactivated by ethanolamine. Immobilization levels of hFAP were around 4000-6000 RU. The reference spot was treated as described, omitting the injection of hFAP. Compound concentration series were injected over the immobilized protein in increasing concentrations (2-500 nM) using single cycle kinetics in running buffer (20 mM TRIS, 150 mM NaCl, 0.05% Tween20, 1% DMSO, pH 7.4). Interaction models were fitted globally to the experimental traces, enabling determination of kon, koff and Kd.
Protocol for physchem: as §3

In [1], `N#C[C@@H]1CSCN1C(=O)CNC(=O)c1ccnc2ccc(N3C4CCCC3COC4)cc12` [Example 86, 6-(3-Oxa-9-azabicyclo[3.3.1]nonan-9-yl)-N-(2-((R)-4-cyanothiazolidin-3-yl)-2-oxoethyl)quinoline-4-carboxamide] gave a 50% inhibitory concentration (IC50) of 0.074 nM. Besides, at hFAP (M39-A757), the “hFAP Binding assay k(off)” value is 0.000058 s⁻¹; the “hFAP Binding assay k(on)” value came out at 730000 M⁻¹ s⁻¹; the affinity, expressed as Kd, was 0.081 nM. In addition, the IC50 in data set [2] is 360 nM. The “rHep CLint” value in [3] amounted to 44 μL/min/1E6. In “in vitro [4]”, this compound returned a microsomal CLint of 160 µL/min/mg. For the same compound, the concentration in solution in “physchem” (solubility) came to 640 µM (≈ 289 µg/mL).

For the compound `N#C[C@@H]1CSCN1C(=O)CNC(=O)c1ccnc2ccc(N3CCO[C@@H](CF)C3)cc12` [Example 69, N-(2-((R)-4-Cyanothiazolidin-3-yl)-2-oxoethyl)-6-((R)-2-(fluoromethyl)morpholino)-quinoline-4-carboxamide], the IC50 in data set [5] is more than 100000 nM; in [6], 950 nM; in [7], 2.1 nM.

Turning to `N#C[C@@H]1CSCN1C(=O)CNC(=O)c1ccnc2ccc(N3CC4CC(C3)O4)cc12` [Example 77, 6-(6-Oxa-3-azabicyclo[3.1.1]heptan-3-yl)-N-(2-((R)-4-cyanothiazolidin-3-yl)-2-oxoethyl)quinoline-4-carboxamide], the IC50 in [1] stood at 0.051 nM. On hFAP (M39-A757), the “hFAP Binding assay k(off)” value worked out at 0.000066 s⁻¹, the “hFAP Binding assay k(on)” value was found to be 4800000 M⁻¹ s⁻¹ and the Kd stood at 0.014 nM. In addition, in data set [2], the IC50 is 470 nM. Besides, the “rHep CLint” value in data set [3] worked out at 5.4 μL/min/1E6. The compound also returned an intrinsic metabolic clearance (microsomal CLint) in the data set “in vitro [4]” of 7.1 µL/min/mg. For the same compound, in the data set “in vitro [8]”, the Papp A→B came to 0.57 ×10⁻⁶ cm/s, the Papp B→A is 16 ×10⁻⁶ cm/s and the efflux ratio came out at 29. In the data set “physchem”, this compound returned a solubility of 850 µM (≈ 360 µg/mL).

For the compound `C[C@@H]1CN(c2ccc3nccc(C(=O)NCC(=O)N4CSC[C@H]4C#N)c3c2)CCO1` [Example 72, N-(2-((R)-4-Cyanothiazolidin-3-yl)-2-oxoethyl)-6-((R)-2-methylmorpholino)-quinoline-4-carboxamide], the IC50 was 0.2 nM on FAP [9], more than 100000 nM in data set [5], 2500 nM in data set [6] and 7.2 nM in [7]. Moreover, the “hHep CLint” value in data set [10] is less than 1 μL/min/1E6. Further, in “Kinetic solubility”, the solubility is more than 1000 µM. Also, the Papp A→B in the data set “Caco-2 cell permeability” was 1.3 ×10⁻⁶ cm/s. The compound also had a Papp B→A in “Caco-2 cell permeability” of 24 ×10⁻⁶ cm/s. In addition, the “rHep CLint” value in [11] is reported as 2.7 μL/min/1E6. In data set [12], this compound displayed a microsomal CLint of 9.7 µL/min/mg.

Regarding `C[C@@H]1CN(c2ccc3nccc(C(=O)NCC(=O)N4CSC[C@H]4C#N)c3c2)C[C@@H](C)O1` [Example 70, N-(2-((R)-4-Cyanothiazolidin-3-yl)-2-oxoethyl)-6-((2R,6R)-2,6-dimethylmorpholino)-quinoline-4-carboxamide], on hFAP (M39-A757), the “hFAP Binding assay k(off)” value amounted to 0.00014 s⁻¹. On hFAP (M39-A757), the “hFAP Binding assay k(on)” value is 5400000 M⁻¹ s⁻¹. In addition, the IC50 on FAP [9] was 0.3 nM; in data set [2], 1100 nM; in data set [5], more than 100000 nM; in data set [13], 4700 nM; in data set [6], 1400 nM.

Consider `C[C@H]1CN(c2ccc3nccc(C(=O)NCC(=O)N4CSC[C@H]4C#N)c3c2)CCO1` [Example 80, N-(2-((R)-4-Cyanothiazolidin-3-yl)-2-oxoethyl)-6-((S)-2-methylmorpholino)-quinoline-4-carboxamide], for which the IC50 in data set [5] is more than 100000 nM; in [6] it was 1400 nM; in [7] it was 9 nM. In data set [10], the “hHep CLint” value was less than 1 μL/min/1E6. This compound showed a solubility in the data set “Kinetic solubility” of 980 µM (≈ 417 µg/mL). In addition, the Papp A→B in the data set “Caco-2 cell permeability” came out at 0.81 ×10⁻⁶ cm/s. This compound came in with a Papp B→A in “Caco-2 cell permeability” of 25 ×10⁻⁶ cm/s. For the same compound, in data set [11], the “rHep CLint” value is 2 μL/min/1E6. The compound also had a microsomal CLint in data set [12] of 7.5 µL/min/mg.

As to `N#C[C@@H]1CSCN1C(=O)CNC(=O)c1ccnc2ccc(N3C4CCC3CC4)cc12` [Example 209, (R)-6-(7-Azabicyclo[2.2.1]heptan-7-yl)-N-(2-(4-cyanothiazolidin-3-yl)-2-oxoethyl)quinoline-4-carboxamide], the IC50 against FAP [14] was determined as 0.44 nM. Besides, half-maximal inhibition in [1] (IC50) was put at 0.15 nM. Further, on hFAP (M39-A757), the “hFAP Binding assay k(off)” value came out at 0.000042 s⁻¹, the “hFAP Binding assay k(on)” value came to 3200000 M⁻¹ s⁻¹ and binding was put at a Kd of 0.02 nM. Further, in data set [2], the IC50 stood at 540 nM. For the same compound, in data set [3], the “rHep CLint” value came to 52 μL/min/1E6. The compound further displayed a microsomal CLint in “in vitro [4]” of 170 µL/min/mg. Further, in the data set “physchem”, the solubility came out at 970 µM (≈ 409 µg/mL).

In the case of `CC1(CF)CN(c2ccc3nccc(C(=O)NCC(=O)N4CSC[C@H]4C#N)c3c2)C1` [Example 27, (R)—N-(2-(4-Cyanothiazolidin-3-yl)-2-oxoethyl)-6-(3-(fluoromethyl)-3-methylazetidin-1-yl)quinoline-4-carboxamide], the IC50 is 0.5 nM at FAP [9], more than 100000 nM in data set [5] and 1.4 nM in data set [7].

`N#C[C@@H]1CSCN1C(=O)CNC(=O)c1ccnc2ccc(N3CCO[C@H](CF)C3)cc12` [Example 71, N-(2-((R)-4-Cyanothiazolidin-3-yl)-2-oxoethyl)-6-((S)-2-(fluoromethyl)morpholino)-quinoline-4-carboxamide]: the IC50 against FAP [9] was 0.2 nM; in data set [5] it was more than 100000 nM; in data set [6] it was 1900 nM; in [7], 2.8 nM.
